Here are results for 25 molecules from PubChem BioAssay (NCI).

Test systems include HL-60(TB) leukemia; A498 renal; MOLT-4 leukemia; SF-295 CNS; HCT-15 colon; SF-539 CNS; RPMI-8226 leukemia; HS 578T breast; U251 CNS.
What all share (assay): growth of human tumour cells (NCI), 48 h

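Grown in 96-well plates, cells were treated for 48 hours with each compound at five concentrations. Insufficient inhibition: endpoint recorded as highest concentration tested. GI50 is the concentration that inhibits growth by half. TGI is the concentration that stops growth completely.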

Regarding `O=[N+]([O-])c1ccc(CSc2nn(Cc3ccc([N+](=O)[O-])cc3)cc3ncnc2-3)cc1`, the TGI in the test on HL-60(TB) leukemia was 46.4 µM; with A498 renal, 58.8 µM; in the test with MOLT-4 leukemia, > 100 µM; in the test with SF-295 CNS, > 100 µM; in the test on HCT-15 colon, > 100 µM; with SF-539 CNS it was 95.5 µM. The molecule also displayed a TGI with RPMI-8226 leukemia of 75 µM.

Regarding `Clc1ccc(Nc2ncco2)cc1Cl`, the TGI in the test on A498 renal, in the test with HS 578T breast, in the test with MOLT-4 leukemia, in the test on U251 CNS, with SF-295 CNS and in the test with HCT-15 colon was > 10 µM each time. In addition, the TGI with SF-539 CNS was > 10 µM.

On to `COc1cc(C2CC(C)(N3CCOCC3)Oc3cc4c(cc32)OCO4)cc(OC)c1OC` (centres undefined), for which the TGI with HS 578T breast is > 56.2 µM; in the test on MOLT-4 leukemia, > 100 µM; in the test with U251 CNS, > 100 µM; in the test with HCT-15 colon it was > 100 µM; in the test on RPMI-8226 leukemia, 0.151 µM.

For `CC(=O)N1C(C(=O)NN2CCOCC2)CSC1c1ccccc1` (centres undefined), the TGI in the test with A498 renal, with HS 578T breast, with MOLT-4 leukemia, in the test with U251 CNS, with SF-295 CNS and with HCT-15 colon was > 100 µM each time. Besides, the TGI in the test on SF-539 CNS and in the test on RPMI-8226 leukemia was > 100 µM in each case.

On to `CCOC(=O)c1c(N2CCCC2)[nH]c(=O)c(C(c2c(O)c(C(=O)OCC)c(N3CCCC3)[nH]c2=O)C(C)C)c1O`, for which the TGI in the test with A498 renal, with HS 578T breast, with MOLT-4 leukemia, with U251 CNS, in the test with SF-295 CNS and in the test with HCT-15 colon was > 100 µM each time. For the same molecule, the TGI in the test with SF-539 CNS and in the test on RPMI-8226 leukemia was > 100 µM in each case.

Turning to `c1ccc(CN2CCC(=NN3CCCCC3)CC2)cc1`, the TGI is 43.9 µM with HL-60(TB) leukemia; > 100 µM in the test with HS 578T breast; > 100 µM in the test with MOLT-4 leukemia; > 100 µM with U251 CNS; > 100 µM with SF-295 CNS; > 100 µM with HCT-15 colon. The TGI is > 100 µM with SF-539 CNS and 66.3 µM in the test on RPMI-8226 leukemia.

Take `c1ccc2c(c1)nnn2CNc1ccc(N2CCCCC2)cc1`: the TGI in the test on HL-60(TB) leukemia, with A498 renal, in the test on MOLT-4 leukemia, with U251 CNS, in the test on SF-295 CNS and in the test with HCT-15 colon was > 100 µM in each case. Besides, the TGI with SF-539 CNS and in the test on RPMI-8226 leukemia was > 100 µM each time.

`CN(C)CCCNC(=O)N/N=C/c1ccc(O)cc1`: the TGI in the test on HL-60(TB) leukemia, in the test with A498 renal, in the test on HS 578T breast, in the test with MOLT-4 leukemia, in the test on U251 CNS and in the test on SF-295 CNS was > 100 µM each time. Moreover, the TGI in the test with HCT-15 colon and with SF-539 CNS was > 100 µM throughout.

With `COc1ccc(C=Nc2ccc(-c3nc4ccccc4s3)cc2)cc1OC`, the TGI in the test on A498 renal was 46.2 µM; in the test on HS 578T breast, > 100 µM; with MOLT-4 leukemia it was 84.4 µM; with U251 CNS, > 100 µM; in the test with SF-295 CNS it was 55.5 µM; in the test with HCT-15 colon it was > 100 µM. The TGI in the test with SF-539 CNS and in the test with RPMI-8226 leukemia was > 100 µM each time.

As to `CC1=C(C(=O)NNC(=O)Cc2ccccc2)CC(C(=O)NNC(=O)Cc2ccccc2)=C(C)N1`, the TGI in the test on HL-60(TB) leukemia, with A498 renal, in the test on U251 CNS, in the test on SF-295 CNS, in the test with HCT-15 colon and in the test with SF-539 CNS was > 100 µM throughout.

`CN(C(=O)[C@H](NC(=O)OCc1ccccc1)c1ccccc1)C1CCCCC1N1CCCC1` (some centres undefined): the TGI was > 100 µM in the test on A498 renal; 77.2 µM in the test on HS 578T breast; > 100 µM in the test on MOLT-4 leukemia; > 100 µM in the test with U251 CNS; > 100 µM in the test with SF-295 CNS; > 100 µM in the test on HCT-15 colon. Besides, the TGI with RPMI-8226 leukemia is > 100 µM.

With `O=C([CH-]C(=O)c1ccccc1)c1ccccc1.[C-]#[O+].[C-]#[O+].[Ir]`, the GI50 in the test on MOLT-4 leukemia is 56.7 µM; in the test on U251 CNS it was 36.4 µM; in the test with SF-295 CNS, 42.9 µM; in the test on HCT-15 colon, 42.6 µM; in the test with SF-539 CNS, 99.4 µM. Further, the TGI in the test with MOLT-4 leukemia, in the test on U251 CNS, in the test with SF-295 CNS, in the test with HCT-15 colon and with SF-539 CNS was > 100 µM throughout.

As to `CC(NC(=O)Cc1ccc(OP(=O)(OCc2ccc([N+](=O)[O-])o2)N(C)CCCCCl)cc1)c1ccc(OCC2CCCCC2)c(C(N)=O)c1` (centres undefined), the TGI with HL-60(TB) leukemia was 5.06 µM; in the test with A498 renal, 7.39 µM; in the test on MOLT-4 leukemia, 4.38 µM; in the test with U251 CNS, 5.28 µM; with SF-295 CNS, 4.84 µM; in the test with HCT-15 colon, 6.44 µM. Further, the results for the TGI in the test with SF-539 CNS and with RPMI-8226 leukemia were 4.09 µM and 2.44 µM, respectively.

With `CCOC(=O)Oc1cc2ccsc2c2c1c1ccccc1n2C(=O)OCC`, the TGI in the test on A498 renal was 32.6 µM; in the test with HS 578T breast it was > 100 µM; in the test with MOLT-4 leukemia, > 100 µM; in the test on U251 CNS, > 100 µM; in the test with SF-295 CNS it was > 100 µM; with HCT-15 colon it was > 100 µM. Moreover, the TGI in the test with SF-539 CNS and in the test with RPMI-8226 leukemia was > 100 µM throughout.

As for `N=c1c2sc3nc4ccccc4n3c2ncn1Cc1ccccc1`, the TGI in the test on A498 renal, in the test with HS 578T breast, in the test with MOLT-4 leukemia, in the test on U251 CNS, in the test on SF-295 CNS and in the test with HCT-15 colon was > 100 µM throughout. The TGI in the test on SF-539 CNS and in the test on RPMI-8226 leukemia was > 100 µM throughout.

Turning to `COC(CNC(=O)CNC(=O)c1ccc(C(F)(F)F)cc1)OC`, the TGI in the test on HL-60(TB) leukemia, in the test with HS 578T breast, with MOLT-4 leukemia, in the test with U251 CNS, in the test with SF-295 CNS and with HCT-15 colon was > 100 µM each time. For the same molecule, the TGI in the test on SF-539 CNS and in the test on RPMI-8226 leukemia was > 100 µM in each case.

Consider `COc1c(C)c(C/C=C(\C)CC/C=C(\C)CC/C=C(\C)CCC=C(C)C)c(OC)c(OC)c1OC`, for which the TGI in the test on HS 578T breast, with MOLT-4 leukemia, in the test with U251 CNS, in the test with SF-295 CNS, with HCT-15 colon and in the test on SF-539 CNS was > 100 µM each time.

On to `COc1ccc(CN(CCN(C)C)c2ccccn2)cc1` (tested in a mixture with another compound), for which the TGI in the test on A498 renal, in the test on MOLT-4 leukemia, with U251 CNS, in the test with SF-295 CNS, in the test on HCT-15 colon and with SF-539 CNS was > 100 µM in each case.

In the case of `O=C(Nc1ccccc1)c1cc2ccccc2c(N=Nc2cccc([N+](=O)[O-])c2)c1O`, the TGI is > 100 µM with A498 renal; 99.1 µM in the test with HS 578T breast; > 100 µM with MOLT-4 leukemia; > 100 µM in the test on U251 CNS; > 100 µM in the test on SF-295 CNS; > 100 µM in the test on HCT-15 colon. Further, in the test with SF-539 CNS, the TGI is > 100 µM.

In the case of `Cc1ccc(Nc2c3c(c(C#N)c4nc5ccccc5n24)CCCC3)cc1`, the TGI with HL-60(TB) leukemia is 25.5 µM; with HS 578T breast, > 100 µM; with MOLT-4 leukemia, 40.6 µM; in the test with U251 CNS it was > 100 µM; in the test on SF-295 CNS, 44.1 µM; with HCT-15 colon it was 82.4 µM. Moreover, the TGI in the test on SF-539 CNS was found to be 43.4 µM.

With `CC1CC(=O)Nc2ccc(Cl)cc2N1C(=O)CN1CCC(CCCCN(C)C)CC1` (centres undefined), the TGI with HL-60(TB) leukemia, in the test on A498 renal, with MOLT-4 leukemia, with U251 CNS, in the test with SF-295 CNS and in the test on HCT-15 colon was > 100 µM each time. In addition, the TGI with RPMI-8226 leukemia was > 100 µM.

Turning to `C/C=C1\CC(C(=O)OCC)CCCCCCC1=O` (centres undefined), the TGI with HL-60(TB) leukemia, in the test on A498 renal, with HS 578T breast, with MOLT-4 leukemia, in the test with U251 CNS and in the test with SF-295 CNS was > 100 µM each time. The TGI in the test on HCT-15 colon and in the test with SF-539 CNS was > 100 µM in each case.

As for `CCOC(=O)COc1cc(-c2ccccc2F)nc2cc3c(cc12)OCO3`, the TGI was 84.5 µM in the test on MOLT-4 leukemia; > 100 µM with U251 CNS; > 100 µM in the test with SF-295 CNS; > 100 µM in the test on HCT-15 colon; > 100 µM in the test with SF-539 CNS; > 100 µM in the test on RPMI-8226 leukemia.

On to `N/C(=N\N=C\c1cc2ccccc2s1)c1cnccn1`, for which the TGI with HL-60(TB) leukemia, in the test on A498 renal, in the test on HS 578T breast, in the test with U251 CNS, in the test on SF-295 CNS and in the test on HCT-15 colon was > 100 µM each time. In addition, the TGI in the test on SF-539 CNS and with RPMI-8226 leukemia was > 100 µM in each case.

Take `Cc1sc2c(c1C)C(=O)c1cccn1-2`: the TGI in the test on A498 renal, with HS 578T breast, in the test with MOLT-4 leukemia, in the test with U251 CNS, in the test with SF-295 CNS and in the test with HCT-15 colon was > 100 µM throughout. The TGI with RPMI-8226 leukemia is > 100 µM.
